# According to patent US20240124483A1, “Methods for the Treatment of Fibrotic Disease” (SHY Therapeutics, LLC, priority 2021, published 2024):
# Read-outs that look alike come from different tables or passages of the source.
# Assays:
# KRas wild type = KRas wild type (Homo sapiens (Human), UniProt P01116); test: Ras GTP Binding Domain Inhibition Assay, KRas wild type
# Method: (§1) A Ras Superfamily Activity Assay (as disclosed in International Application No. PCT/US2018/038613, filed Jun. 20, 2018, which is incorporated by reference in its entirety) was used as a specific assay to evaluate compounds against the following for the following Ras Superfamily proteins: KRas wild type, KRas Q61H mutant, KRas G12C mutant, KRas G12D mutant, Rac-1, and Rho-A.
# (§2) Buffer-I: • 25 mM Tris-HCl, pH 7.4 • 27 mM KCl • 137 mM NaCl • 1 mM MgCl2 • 1 mM DTT
# (§3) Buffer-II: • 50 mM Tris-HCl, pH 7.0 • 1 mM MgCl2 • 1 mM DTT
# (§4) The small GTPases proteins: KRas wild type. KRas Q61H mutant, KRas G12C mutant, KRas G12D mutants, Rac-1, and Rho-A were expressed as His-tagged proteins. In addition, the Guanosine nucleotide Exchange Factor (GEF) Sos protein (residues 556-1049) was expressed as a His-tagged protein. In cells, the guanine nucleotide exchange factor Sos protein promotes activation of Ras proteins by stimulating an exchange of GDP for GTP. The inclusion of Sos to the Ras GTP binding domain inhibition assay may be considered as an alternative representation of physiological cellular conditions for evaluating the inhibitory activity of some of the tested small molecules.
# (§5) For the assay, all purified small GTPases proteins were diluted in Buffer-I or Buffer-II to a final concentration of 10-30 μg/mL. 200 μL of each diluted protein was added to a nickel-coated 96-well plate and incubated overnight at 4° C. Then the protein solution was discarded and 200 μL of Buffer-I or Buffer-II was added to each well in the presence of 1% DMSO. Compounds to be tested were added to the protein-coated wells at final concentration of 20 μM, and incubated for 3 hours at room temperature with and without 10-30 μg/mL of Sos added to the final hour of the incubation. When performing IC50 measurements a serial dilution of all tested concentrations was added. Then Cy3-GTP or Cy5-GTP was added to each well to a final concentration of 100 nM. The labeled GTP was incubated for 45 minutes at room temperature. Following GTP incubation, wells were washed 3× in Buffer-I or Buffer-II and 200 μL of Buffer-I or Buffer-II was added to each well. Following washes, the amount of bound labeled-GTP was measured using a SpectraMax M3 (Molecular Devices).
# JNK = JNK Activation Assay in Panc-1 (western blot); type: cell-based, Human; set-up: key: Y = yes; N = No; settings: at 10 μM
# Method: (§6) Cell lines: Human tumor-derived pancreatic cancer cell line Panc-1 and mouse muscle myoblast C2C12 were purchased from American Type Culture Collection and grown in complete DMEM-High Glucose, supplemented with penicillin (100 U/mL), streptomycin (100 μg/mL), and 10% heat-inactivated FBS at 37° C. in a humidified incubator with 5% CO2.
# (§7) Method: Cells were plated at 350000 cells/well density in a 12-well plate, allowed 3 hours to adhere to the plate, then starved in the appropriate medium in the presence of 0.5% FBS overnight. The small molecules to be tested were added to the cells in the final concentration of 10 μM in the presence of 0.3% DMSO for 3 hours incubation at 37° C. For IC50 value determination, serial dilutions of compounds were added to cells under the same conditions. Next, Panc-1 cells were stimulated with 10 ng/ml TGF-b1 for 1 hour, and C2C12 cells were stimulated with 10 ng/ml TGF-b1 for 20 minutes (recombinant human TGF-b1, R&D Systems). After stimulation cells were lysed with lysis buffer containing 1% Triton X-100, EDTA, and Halt™ Protease & Phosphatase Inhibitor Cocktail (Thermo Scientific). Protein concentration was assessed by BCA protein assay (Thermo Scientific). Phosphorylation level of JNK was determined by western blot.
# (§8) Western blot protocol: Equal amounts of protein (15-50 μg) were separated by SDS-PAGE and transferred to nitrocellulose membranes (Invitrogen by Thermo Fisher Scientific). The membrane was stained with Ponceau S Stain (Boston BioProducts) to verify uniform protein loading. Membranes were blocked with 10% milk and phosphorylation levels of Smad2, Smad3, INK and p38 were assessed by incubating overnight at 4° C. with the following antibody: Phospho-SAPK/JNK (Thr183/Tyr185), from Cell Signaling Technology. Then the membranes were incubated with HRP-conjugated secondary antibody (Jackson Immunoresearch, West Grove, PA). Bands were incubated in Amersham ECL Prime Western Blotting Detection Reagent (GE Healthcare) and visualized using the ChemiDoc MP imaging system (Bio-Rad).
# Rho-A = Rho-A (Homo sapiens (Human), UniProt P61586); test: Ras GTP Binding Domain Inhibition Assay, Rho-A
# Method: as §1, §2, §3, §4, §5
# Rac-1 = Rac-1 (Homo sapiens (Human), UniProt P63000); test: Ras GTP Binding Domain Inhibition Assay, Rac-1
# Method: as §1, §2, §3, §4, §5
# MAPK p38 = MAPK p38 Activation Assay in Panc-1 (western blot); type: cell-based, Human; set-up: key: Y = yes; N = No; settings: at 10 μM
# Method: as §6
# as §7, with “MAPK p38” for “JNK”
# as §8, with “Smad2/Smad3” for “Smad2, Smad3, INK and p38”, “Phospho-p38 MAPK (Thr180/Tyr182),” for “Phospho-SAPK/JNK (Thr183/Tyr185),”
# [1] = without SOS, read-out: KRas wild type: % inh.
# [2] = without SOS, read-out: Rho-A: % inh.
# [3] = without SOS, read-out: Rac-1: % inh.
# [4] = + SOS, read-out: KRas wild type + SOS: % inh.
# [5] = + SOS, read-out: Rho-A + SOS: % inh.
# [6] = + SOS, read-out: Rac-1 + SOS: % inh.
# Sequence of KRas wild type (P01116 other isoform, or with tags, fused parts or gaps): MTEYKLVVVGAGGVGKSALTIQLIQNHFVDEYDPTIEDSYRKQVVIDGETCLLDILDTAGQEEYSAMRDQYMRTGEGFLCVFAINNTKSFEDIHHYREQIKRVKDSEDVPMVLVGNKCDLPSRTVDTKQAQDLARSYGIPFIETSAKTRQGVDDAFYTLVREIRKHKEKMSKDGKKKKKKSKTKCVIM
# Sequence of Rho-A (P61586 whole entry, species assumed, the tested form may be a part): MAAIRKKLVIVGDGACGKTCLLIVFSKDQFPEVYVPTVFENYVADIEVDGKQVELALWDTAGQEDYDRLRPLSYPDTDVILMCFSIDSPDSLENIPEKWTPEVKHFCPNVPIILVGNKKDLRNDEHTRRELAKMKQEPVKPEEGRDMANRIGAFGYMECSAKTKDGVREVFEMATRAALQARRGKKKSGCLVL
Compound,inhibition at 20 µM (KRas wild type; [1]) [%],Activation of JNK in PANC-1 (JNK),inhibition at 20 µM (Rho-A; [2]) [%],inhibition at 20 µM (Rac-1; [3]) [%],Activation of MAPK p38 in PANC-1 (MAPK p38),inhibition at 20 µM (KRas wild type; [4]) [%],inhibition at 20 µM (Rho-A; [5]) [%],inhibition at 20 µM (Rac-1; [6]) [%]
"COCCNc1nc(-c2nccn2C)nc2sc(-c3ccccc3)c(-c3ccccc3Cl)c12 [Compound 4, 5-(2-Chlorophenyl)-N-(2-methoxyethyl)-2-(1-methyl-1H-imidazol-2-yl)-6-phenylthieno[2,3-d]pyrimidin-4-amine]",1 to 25,Y,26 to 45,26 to 45,Y,–,–,–
"COC1CCN(c2nc(-c3nccn3C)nc3sc(-c4ccn(C)n4)c(-c4ccccc4)c23)CC1 [Compound 6, 4-(4-Methoxypiperidin-1-yl)-2-(1-methyl-1H-imidazol-2-yl)-6-(1-methyl-1H-pyrazol-3-yl)-5-phenylthieno[2,3-d]pyrimidine]",0,Y,0,26 to 45,N,26 to 45,0,26 to 45
"COCCNc1nc(-c2nccn2C)nc2sc(-c3cccc(OC)c3Cl)c(-c3ccc(OC)cc3)c12 [Compound 7, 6-(2-Chloro-3-methoxyphenyl)-N-(2-methoxyethyl)-5-(4-methoxyphenyl)-2-(1-methyl-1H-imidazol-2-yl)thieno[2,3-d]pyrimidin-4-amine]",46 to 75,Y,26 to 45,46 to 75,Y,76 to 100,46 to 75,46 to 75
"COCCNc1nc(-c2cn(C)cn2)nc2sc(-c3cccc(OC)c3Cl)c(-c3ccc(OC)cc3)c12 [Compound 8, 6-(2-Chloro-3-methoxyphenyl)-N-(2-methoxyethyl)-5-(4-methoxyphenyl)-2-(1-methyl-1H-imidazol-4-yl)thieno[2,3-d]pyrimidin-4-amine]",46 to 75,Y,46 to 75,46 to 75,Y,76 to 100,46 to 75,46 to 75
"COCCNc1nc(-c2nccn2C)nc2sc(-c3cccc(OC)c3Cl)c(-c3ccccc3)c12 [Compound 9, 6-(2-Chloro-3-methoxyphenyl)-N-(2-methoxyethyl)-2-(1-methyl-1H-imidazol-2-yl)-5-phenylthieno[2,3-d]pyrimidin-4-amine]",46 to 75,Y,26 to 45,46 to 75,Y,76 to 100,26 to 45,46 to 75
"COCCn1ccnc1-c1nc(N[C@H]2C[C@@H](OC)C2)c2c(-c3ccccc3)c(-c3ccn(C)n3)sc2n1 [Compound 13, N-((1s,3s)-3-methoxycyclobutyl)-2-(1-(2-methoxyethyl)-1H-imidazol-2-yl)-6-(1-methyl-1H-pyrazol-3-yl)-5-phenylthieno[2,3-d]pyrimidin-4-amine]",76 to 100,Y,76 to 100,76 to 100,N,76 to 100,76 to 100,76 to 100
"CO[C@H]1C[C@H](CNc2nc(-c3nccn3C)nc3sc(-c4ccn(C(C)C)n4)c(C)c23)C1 [Compound 16, 6-(1-Isopropyl-1H-pyrazol-3-yl)-N-(((1r,3r)-3-methoxycyclobutyl)methyl)-5-methyl-2-(1-methyl-1H-imidazol-2-yl)thieno[2,3-d]pyrimidin-4-amine]",76 to 100,Y,46 to 75,26 to 45,Y,46 to 75,–,–
